According to patent publication US6613889B2, “Method for preparing salts of polyene macrolide esters” (BioSource Pharm, Inc., priority 2001, dated 2003):

How the values were obtained:
[1] = at pH levels less than 4.0; cited from earlier work
[2] = solubility in water; type: physicochemical; conditions: freeze-dried yellow powder
Excerpt: In order to facilitate removal of the aldehyde protective group of the Schiff base and to form the salt of the liberated free base ester, the Schiff base is stirred in water overnight, centrifuged and the insoluble product dried by lyophilization. HPLC and 300 Mhz NMR indicate that the product contains some p-chlorobenzaldehyde and is usually about a 50/50 mixture of the desired methyl ester and the corresponding Schiff base. The mixture is stirred in ethyl acetate to remove the excess aldehyde. The product is then dissolved in a solvent which is inert to the materials, is miscible with water, and can be removed from an aqueous solution as an azeotrope. Tetrahydrofuran or acetonitrile fulfil these requirements. […] A solution of amphotericin B methyl ester Schiff base/free base in tetrahydrofuran is diluted with water to approximately 75% THF but maintained in solution. To this solution is added dilute hydrochloric acid until the appropriate pH is reached. This causes the hydrolysis of the Schiff base and forms the hydochloride salt of amphotericin B methyl ester. The tetrahydrofuran is then removed as an azeotrope with water to obtain an aqueous solution of the AME.HCl and some insoluble material containing part of the aldehyde. The residual aldehyde in the aqueous solution of the AME.HCl is an impurity which can not be readily removed by filtration, centrifuging, or solvent extraction. […]

[3] = pH of a 1% solution; type: physicochemical
Procedure: A mixture of amphotericin B methyl ester and its p-chlorobenzilidine derivative (1.029 g) was dissolved in 40 ml o THF/H2O (4/1) and 0.90 ml of 1.0 M acetic acid solution was added dropwise. Water (40 ml) was added and THF was removed as an azeotrope at reduced pressure and 40° C. The resulting aqueous solution was passed through a column of Amberlite® XAD-2, then freeze-dried to afford 0.654 g of the acetate salt: E^1%1 cm=1100 at 382 nm in MeOH; a 1% solution had pH 5.30.

COC(=O)[C@H]1[C@@H]2C[C@@H](O[C@@H]3O[C@H](C)[C@@H](O)[C@H](N)[C@@H]3O)/C=C/C=C/C=C/C=C/C=C/C=C/C=C/[C@H](C)[C@@H](O)[C@@H](C)[C@H](C)OC(=O)C[C@H](O)C[C@H](O)CC[C@@H](O)[C@H](O)C[C@H](O)C[C@](O)(C[C@@H]1O)O2 [AME, amphotericin B methyl ester]
stability [1]: very unstable

COC(=O)[C@H]1[C@@H]2C[C@@H](O[C@@H]3O[C@H](C)[C@@H](O)[C@H](N)[C@@H]3O)/C=C/C=C/C=C/C=C/C=C/C=C/C=C/[C@H](C)[C@@H](O)[C@@H](C)[C@H](C)OC(=O)C[C@H](O)C[C@H](O)CC[C@@H](O)[C@H](O)C[C@H](O)C[C@](O)(C[C@@H]1O)O2.Cl [AME.HCl, amphotericin B methyl ester hydrochloride]
solubility in water [2]: highly soluble

CC(=O)O.COC(=O)C1C(O)CC2(O)CC(O)CC(O)C(O)CCC(O)CC(O)CC(=O)OC(C)C(C)C(O)C(C)C=CC=CC=CC=CC=CC=CC=CC(OC3OC(C)C(O)C(N)C3O)CC1O2 (stereo not drawn) [Amphotericin B Methyl Ester Acetate]
pH of solution [3]: 5.30
